In patent US6737383B1, “Herbicidal oxadiazolidines” (priority 1999, dated 2004):

How the values were obtained:
Italian ryegrass = experiment: Test E Italian ryegrass; assay type: in vivo, Lolium multiflorum; conditions: Preemergence, Rate 250 g/ha
sugar beet = experiment: Test B pre/postemergence sugar beet; assay type: in vivo, Beta vulgaris
Method in brief: (§1)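 Herbicidal effect was estimated by eye on a ten-point control scale after plants spent twelve to sixteen days in a greenhouse following soil or foliar treatment. Foliar sprays targeted plants at one to four leaves; all doses were formulated in a non-phytotoxic solvent with surfactant.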

rice = experiment: Test B flood test rice; assay type: in vivo, Oryza sativa
Method in brief: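 Flood test on plants grown to the 2-leaf stage; treated plants kept in greenhouse twelve to sixteen days, then visually rated against controls on a 0 (no effect) to 10 (complete control) scale.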

winter wheat = experiment: Test E winter wheat; assay type: in vivo, Triticum aestivum; conditions: Preemergence, Rate 250 g/ha
blackgrass = experiment: Test E blackgrass; assay type: in vivo, Alopecurus myosuroides; conditions: Preemergence, Rate 250 g/ha
purple nutsedge = experiment: Test B pre/postemergence purple nutsedge; assay type: in vivo, Cyperus rotundus
Method in brief: as §1

wild oat = experiment: Test E wild oat; assay type: in vivo, Avena fatua; conditions: Preemergence, Rate 250 g/ha
green foxtail = experiment: Test E green foxtail; assay type: in vivo, Setaria viridis; conditions: Preemergence, Rate 250 g/ha
pigweed = experiment: Test B pre/postemergence pigweed; assay type: in vivo, Amaranthus retroflexus
Method in brief: as §1

winter barley = experiment: Test E winter barley; assay type: in vivo, Hordeum vulgare; conditions: Preemergence, Rate 250 g/ha
[1] = Preemergence, Rate 62 g/ha, scale of 0 to 10 where 0 is no effect and 10 is complete control
[2] = Preemergence, Rate 250 g/ha, scale of 0 to 10 where 0 is no effect and 10 is complete control
[3] = Preemergence, Rate 500 g/ha, scale of 0 to 10 where 0 is no effect and 10 is complete control
[4] = Rate 62 g/ha, Postemergence, scale 0 to 10, 0 no effect, 10 complete control
[5] = Rate 125 g/ha, Postemergence, scale of 0 to 10 where 0 is no effect and 10 is complete control
[6] = Rate 125 g/ha, Preemergence, scale of 0 to 10 where 0 is no effect and 10 is complete control
[7] = Rate 250 g/ha, Postemergence, scale of 0 to 10 where 0 is no effect and 10 is complete control
[8] = Postemergence, Rate 62 g/ha, scale 0 to 10, 0 is no effect, 10 is complete control
[9] = Postemergence, Rate 125 g/ha, scale of 0 to 10 where 0 is no effect and 10 is complete control
[10] = Preemergence, Rate 125 g/ha, scale of 0 to 10 where 0 is no effect and 10 is complete control
[11] = Rate 500 g/ha, Postemergence, scale 0 to 10, 0 is no effect, 10 is complete control
[12] = Rate 250 g/ha, Pre-emergence (flood test species), scale 0 to 10, 0 is no effect, 10 is complete control
[13] = Rate 500 g/ha, Pre-emergence section of Table B, 0 to 10 scale (0 no effect, 10 complete control)
[14] = Preemergence, Rate 250 g/ha, scale 0 (no effect) to 10 (complete control)
[15] = Rate 62 g/ha, Preemergence, scale 0 to 10
[16] = Rate 250 g/ha, Postemergence, scale 0 to 10, 0 is no effect, 10 is complete control
[17] = Rate 500 g/ha, Preemergence, scale 0 to 10 (0 no effect, 10 complete control)

CCC=CCn1c(=O)on(C(=O)N(c2ccc(F)cc2)C(C)C)c1=O [Compound 286]
40: I. Ryegrass plant response rating (0 to 100 scale) (Italian ryegrass) | Wheat (winter) plant response rating (0 to 100 scale) (winter wheat)
6: Plant response rating, Redroot pigweed (pigweed; [7])
4: Plant response rating, Sugarbeets (sugar beet; [3])
2: Sugarbeets plant response rating (sugar beet; [5]) | Plant response rating, Sugarbeets (sugar beet; [7]) | Redroot pigweed plant response rating (pigweed; [2])
3: Redroot pigweed plant response rating (pigweed; [5])
55: Green foxtail plant response rating (0 to 100 scale) (green foxtail)
0: Sugarbeets plant response rating (sugar beet; [1]) | Sugarbeets plant response rating (sugar beet; [2]) | Sugarbeets plant response rating (sugar beet; [4]) | Sugarbeets plant response rating (sugar beet; [6]) | Rice plant response rating (rice; Rate 62 g/ha, headed Pre-emergence (flood test species), scale 0 to 10 (0 no effect, 10 complete control)) | Rice plant response rating (rice; Rate 125 g/ha, Pre-emergence, flood test species, scale 0 to 10 where 0 is no effect and 10 is complete control) | Rice plant response rating (rice; Rate 250 g/ha, Pre-emergence, flood-test species, scale 0 to 10, 0 is no effect, 10 is complete control) | Rice plant response rating (rice; Rate 500 g/ha, Pre-emergence, flood test species, scale 0 to 10 (0 no effect, 10 complete control)) | Nutsedge plant response rating (purple nutsedge; [1]) | Nutsedge plant response rating (purple nutsedge; [2]) | Nutsedge plant response rating (purple nutsedge; [4]) | Nutsedge plant response rating (purple nutsedge; [5]) | Nutsedge plant response rating (purple nutsedge; [6]) | Plant response rating, Nutsedge (purple nutsedge; [7]) | Redroot pigweed plant response rating (pigweed; [1]) | Redroot pigweed plant response rating (pigweed; [4]) | Redroot pigweed plant response rating (pigweed; [6])
10: Blackgrass plant response rating (0 to 100 scale) (blackgrass) | Wild oat plant response rating (0 to 100 scale) (wild oat) | Plant response rating, Redroot pigweed (pigweed; [3])
5: Barley (winter) plant response rating (0 to 100 scale) (winter barley)

CC(C)N(C(=O)n1oc(=O)n(CCCC#N)c1=O)c1ccc(F)cc1F [Compound 675]
0: Plant response rating, Sugarbeets (sugar beet; [8]) | Plant response rating, Rice (0 to 10 scale, 0 is no effect, 10 is complete control) (rice; Rate 62 g/ha, flood test species, Pre-emergence, visual evaluation after twelve to sixteen days) | Rice plant response rating (0 to 10 scale, 0 is no effect, 10 is complete control) (rice; Rate 125 g/ha, under heading Pre-emergence, flood test species, visual evaluation after twelve to sixteen days) | Rice plant response rating (rice; [12]) | Rice plant response rating (rice; [13]) | Plant response rating, Nutsedge (purple nutsedge; [8]) | Nutsedge plant response rating (purple nutsedge; [9]) | Nutsedge plant response rating (purple nutsedge; [1]) | Plant response rating, Nutsedge (purple nutsedge; [10])
4: Sugarbeets plant response rating (sugar beet; [11])
5: Sugarbeets plant response rating (sugar beet; [1]) | Redroot pigweed plant response rating (pigweed; [1])
7: Plant response rating, Sugarbeets (sugar beet; [10]) | Plant response rating, Nutsedge (purple nutsedge; [3])
9: Plant response rating, Redroot pigweed (pigweed; [10])
2: Sugarbeets plant response rating (sugar beet; [9]) | Plant response rating, Redroot pigweed (pigweed; [8]) | Redroot pigweed plant response rating (pigweed; [9])
10: Plant response rating, Sugarbeets (sugar beet; [3]) | Plant response rating, Redroot pigweed (pigweed; [3])
8: Nutsedge plant response rating (purple nutsedge; [11]) | Redroot pigweed plant response rating (pigweed; [11])

CC(C)N(C(=O)n1oc(=O)n(CC2=NOCCO2)c1=O)c1ccc(F)cc1F [Compound 758]
8: Sugarbeets plant response rating (sugar beet; [11]) | Sugarbeets plant response rating (sugar beet; [17]) | Redroot pigweed plant response rating (pigweed; [9]) | Plant response rating, Redroot pigweed (pigweed; [10]) | Redroot pigweed plant response rating (pigweed; [14]) | Redroot pigweed plant response rating (pigweed; [15]) | Redroot pigweed plant response rating (pigweed; [16]) | Redroot pigweed plant response rating (pigweed; [11])
10: Redroot pigweed plant response rating (pigweed; [17])
7: Plant response rating, Sugarbeets (sugar beet; [10]) | Sugarbeets plant response rating (sugar beet; [14]) | Plant response rating, Redroot pigweed (pigweed; [8])
5: Sugarbeets plant response rating (sugar beet; [15])
3: Sugarbeets plant response rating (sugar beet; [16])
0: Plant response rating, Sugarbeets (sugar beet; [8]) | Rice plant response rating (rice; Pre-emergence, Rate 62 g/ha, scale 0 to 10, 0 is no effect, 10 is complete control) | Rice plant response rating (rice; Rate 125 g/ha, Pre-emergence section (flood test species), scale 0 to 10, 0 no effect, 10 complete control) | Rice plant response rating (rice; [12]) | Rice plant response rating (rice; [13]) | Plant response rating, Nutsedge (purple nutsedge; [8]) | Nutsedge plant response rating (purple nutsedge; [9]) | Plant response rating, Nutsedge (purple nutsedge; [10]) | Nutsedge plant response rating (purple nutsedge; [14]) | Nutsedge plant response rating (purple nutsedge; [15]) | Nutsedge plant response rating (purple nutsedge; [16]) | Nutsedge plant response rating (purple nutsedge; [11])
